Laboratory results reported in ChEMBL document CHEMBL1123128, “(+/-)-2-Amino-3,4-dihydro-7-[2,3-dihydroxy-4-(hydroxymethyl)-1- cyclopentyl]-7H-pyrrolo[2,3-d]pyrimidin-4-ones: new carbocyclic analogues of 7-deazaguanosine with antiviral activity” (1985).
Converted amounts (≈) assume the structure as drawn.

System: Human alphaherpesvirus 1
Experiment: The minimal inhibitory concentration required to inhibit HSV-1 virus in MRC5 cells
Format: functional

`Nc1nc(O)c2ccn([C@@H]3C[C@H](CO)[C@@H](O)[C@@H]3O)c2n1` gave an MIC of 25 µg/mL (≈ 89.2 µM).

`Nc1nc(O)c2ccn([C@@H]3C[C@H](CO)[C@H](O)[C@@H]3O)c2n1` gave an MIC of 100 µg/mL (≈ 357 µM).
